Our source for the IC50 values is US10138222B2, “Substituted benzamides as RIPK2 inhibitors” (Boehringer Ingelheim International GmbH, priority 2016, dated 2018).

By IC50 is commonly meant the concentration that inhibits the measured activity by half.

This experiment concerns the target RIPK2 (Homo sapiens (Human), UniProt O43353). Description: RIPK2 inhibition, ADP-Glo Kinase Assay. To be noted: 8His-RIPK2 FL enzyme 8 nM, ATP 5 μM, 15 minutes pre-incubation, 60 minutes at 37° C., luminescence. The experiment is classed as biochemical. As to the method: RIPK2 inhibition for compounds in Table 1 are shown in Table 3 and measured using the following method:
Materials: White, 384-well optiplates (cat.no. 6007290) were purchased from PerkinElmer. The V9103X ADP-Glo Kinase Assay Custom (including ultra-pure ATP) was purchased from Promega. 8His-RIPK2 FL was prepared in-house. All other materials were of highest grade commercially available.
Method: In a 384-well plate, test compound diluted in assay buffer (1% DMSO final) is mixed with 8His-RIPK2 FL enzyme (final concentration of 8 nM). After 15 minutes of pre-incubation at RT, ATP dissolved in assay buffer is added (final concentration 5 μM). The mixture is incubated for 60 minutes at 37° C. in a humidified incubator. Then, ADP Glo Reagent is added, followed by a 40 minute incubation at rt. Finally, Kinase Detection Reagent is added and the entire mixture is incubated for 40 min at RT. The luminescence signal is measured with an Envision reader to determine the amount of ADP produced. Assay buffer: 25 mM HEPES (4-(2-hydroxyethyl)-1-piperazinethanesulfonic acid), 0.1% BSA (bovine serum albumin), 10 mM MgCl2, 5 mM MnCl2, 50 mM KCl, 0.01% CHAPS (3-[(3-cholamidopropyl)dimethylammonio]-1-propanesulfonate), 10 μM Na3VO4, 1 mM DTT (dithiothreitol), pH 7.5 All plates contain wells with vehicle controls instead of compound (1% DMSO) as reference for the high signal (100% CTL (100% of control), high signal), and wells without enzyme as reference for low signal (0% CTL, low signal). The luminescent signal generated is proportional to the ADP produced and is correlated with enzyme activity. The analysis of the data is performed by the calculation of the percentage of ADP production in the presence of the test compound and RIPK2 as compared to the ADP production in the presence of RIPK2 plus 50 μM Gefitinib. (RLU (relative luminescence units) (sample)−RLU(low control))*100/(RLU(high value)−RLU(low control)) [RLU=relative luminescence units].
In general terms: In ADP-Glo the light output rises with the ADP produced.

RIPK2, sequence (O43353 whole entry): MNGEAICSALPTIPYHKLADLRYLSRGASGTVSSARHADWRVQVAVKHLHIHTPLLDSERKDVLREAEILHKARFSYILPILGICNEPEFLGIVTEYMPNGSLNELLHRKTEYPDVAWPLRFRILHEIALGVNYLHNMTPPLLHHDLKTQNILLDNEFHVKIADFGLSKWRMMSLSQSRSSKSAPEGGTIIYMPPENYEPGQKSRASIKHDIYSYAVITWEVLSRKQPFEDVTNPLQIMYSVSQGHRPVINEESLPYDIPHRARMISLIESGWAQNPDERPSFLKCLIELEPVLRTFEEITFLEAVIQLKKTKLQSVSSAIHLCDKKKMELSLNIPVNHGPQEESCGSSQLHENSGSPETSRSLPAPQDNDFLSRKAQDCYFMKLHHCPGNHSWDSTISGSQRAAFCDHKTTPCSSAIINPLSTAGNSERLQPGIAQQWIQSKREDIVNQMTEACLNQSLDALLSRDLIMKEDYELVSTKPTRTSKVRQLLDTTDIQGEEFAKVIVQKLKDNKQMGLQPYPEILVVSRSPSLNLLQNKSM

In turn, `Cc1ccc(C(=O)NC2CC2)cc1-c1cnn(-c2cncc(NC3CCCCC3)c2)c1` [Example 97, 3-{1-[5-(cyclohexylamino)pyridin-3-yl]-1H-pyrazol-4-yl}-N-cyclo-propyl-4-methylbenzamide] had an IC50 of 3.3 nM. Consider `Cc1ccc(C(=O)NC2CC2)cc1-c1cnn(-c2cncc(N[C@@H]3C[C@H]4CC[C@@H]3O4)c2)c1` [Example 66, N-cyclopropyl-4-methyl-3-[1-(5-{[(1S,2R,4R)-7-oxabicyclo[2.2.1]heptan-2-yl]amino}pyridin-3-yl)-1H-pyrazol-4-yl]benzamide], for which the midpoint of inhibition, the IC50, lay at 3.9 nM. Next, `Cc1ccc(C(=O)NC2CC2)cc1-c1cnn(-c2cncc(NC3CCN(C(=O)OC(C)(C)C)CC3)c2)c1` [Example 73, tert-butyl 4-[(5-{4-[5-(cyclopropylcarbamoyl)-2-methyl-phenyl]-1H-pyrazol-1-yl}pyridin-3-yl)amino]piperidine-1-carboxylate]: 15 nM; `Cc1ccc(C(=O)NC2CC2)cc1-c1cnn(-c2cncc(N)c2)c1` [Example 106, 3-[1-(5-aminopyridin-3-yl)-1H-pyrazol-4-yl]-N-cyclopropyl-4-methylbenzamide]: 7 nM.

In turn, `Cc1ccc(C(=O)NC2CC2)cc1-c1cnn(-c2cncc(NS(C)(=O)=O)c2)c1` [Example 122, N-cyclopropyl-3-[1-(5-methanesulfonamidopyridin-3-yl)-1H-pyrazol-4-yl]-4-methyl-benzamide] yielded an IC50 of 9.5 nM. The IC50 values of the last two compounds are within 1.5-fold of each other. Next, `COc1cncc(-n2cc(-c3cc(C(=O)NC4CC4)ccc3Cl)cn2)c1` [Example 27, 4-chloro-N-cyclopropyl-3-[1-(5-methoxypyridin-3-yl)-1H-pyrazol-4-yl]benzamide]: 22 nM; `Cc1ccc(C(=O)NC2CC2)cc1-c1cnn(-c2cncc(NC3CCN(C4CCCOC4)CC3)c2)c1` (stereo not drawn) [Example 161, N-cyclopropyl-4-methyl-3-[1-(5-{[1-(oxan-3-yl)piperidin-4-yl]amino}pyridin-3-yl)-1H-pyrazol-4-yl] benzamide]: 1.5 nM. As for `COc1cncc(-n2cc(-c3cc(C(=O)NC4CC4)c(F)cc3Cl)cn2)c1` [Example 26, 4-chloro-N-cyclopropyl-2-fluoro-5-[1-(5-methoxypyridin-3-yl)-1H-pyrazol-4-yl]benzamide], the figure is 8.9 nM; as for `Cc1ccc(C(=O)NC2CC2)cc1-c1cnn(-c2cncc(NC(=O)CF)c2)c1` [Example 116, N-cyclopropyl-3-{1-[5-(2-fluoroacetamido)pyridin-3-yl]-1H-pyrazol-4-yl}-4-methylbenzamide], 7.2 nM.

`O=C(NC1CC1)c1cc(-c2cnn(-c3cncc(C4CC4)c3)c2)c(Cl)cc1F` [Example 104, 4-chloro-N-cyclopropyl-5-[1-(5-cyclopropylpyridin-3-yl)-1H-pyrazol-4-yl]-2-fluorobenzamide] displayed an IC50 of 1.9 nM. Next, `COCCN1CCC(Nc2cncc(-n3cc(-c4cc(C(=O)NC5CC5)c(F)cc4C)cn3)c2)CC1` [Example 74, N-cyclopropyl-2-fluoro-5-[1-(5-{[1-(2-methoxyethyl)piperidin-4-yl]amino}pyridin-3-yl)-1H-pyrazol-4-yl]-4-methylbenzamide]: 1 nM. Next, `Cc1ccc(C(=O)NC2CC2)cc1-c1cnn(-c2cncc(NC3CCN(C4CCOCC4)CC3)c2)c1` [Example 162, N-cyclopropyl-4-methyl-3-[1-(5-{[1-(oxan-4-yl)piperidin-4-yl]amino}pyridin-3-yl)-1H-pyrazol-4-yl] benzamide]: 2.3 nM. As for `Cc1ccc(C(=O)NC2CC2)cc1-c1cnn(-c2cncc(NCCOC(C)(C)C)c2)c1` [Example 55, 3-[1-(5-{[2-(tert-butoxy)ethyl]amino}pyridin-3-yl)-1H-pyrazol-4-yl]-N-cyclopropyl-4-methylbenzamide], the figure is 9.7 nM. Compound `Cc1ccc(C(=O)NC2CC2)cc1-c1cnn(-c2cncc(NC(=O)NC3CC3)c2)c1` [Example 108, N-cyclopropyl-3-(1-{5-[(cyclopropylcarbamoyl)amino]pyridin-3-yl}-1H-pyrazol-4-yl)-4-methylbenzamide] had an IC50 of 4.4 nM. Next, `Cc1ccc(C(=O)NC2CC2)cc1-c1cnn(-c2cncc(NC(=O)C3CC3)c2)c1` [Example 144, 3-[1-(5-cyclopropaneamidopyridin-3-yl)-1H-pyrazol-4-yl]-N-cyclo-propyl-4-methylbenzamide]: 2.9 nM; `Cc1ccc(C(=O)NC2CC2)cc1-c1cn(-c2cccnc2)cn1` [Example 35, N-cyclopropyl-4-methyl-3-[1-(pyridin-3-yl)-1H-imidazol-4-yl] benzamide]: 39 nM. As for `Cc1ccc(C(=O)NC2CC2)cc1-c1cnn(-c2cncc(NC(=O)NC3CCC3)c2)c1` [Example 109, 3-(1-{5-[(cyclobutylcarbamoyl)amino]pyridin-3-yl}-1H-pyrazol-4-yl)-N-cyclopropyl-4-methylbenzamide], the IC50 was 3.6 nM. `CNCc1cncc(-n2cc(-c3cc(C(=O)NC4CC4)ccc3C)cn2)c1` [Example 39, N-cyclopropyl-4-methyl-3-(1-{5-[(methylamino)methyl]pyridin-3-yl}-1H-pyrazol-4-yl)benzamide] came in with an IC50 of 180 nM. Next, `CC(=O)N1CC[C@@H](Oc2cncc(-n3cc(-c4cc(C(=O)NC5CC5)ccc4C)cn3)c2)C1` [Example 126, 3-[1-(5-{[(3R)-1-acetylpyrrolidin-3-yl]oxy}pyridin-3-yl)-1H-pyrazol-4-yl]-N-cyclopropyl-4-methyl-benzamide]: 20 nM; `COCCC(=O)Nc1cncc(-n2cc(-c3cc(C(=O)NC4CC4)ccc3C)cn2)c1` [Example 143, N-cyclopropyl-3-{1-[5-(3-methoxypropanamido)pyridin-3-yl]-1H-pyrazol-4-yl}-4-methylbenzamide]: 6.1 nM; `Cc1ccc(C(=O)NC2CC2)cc1-c1cn(-c2cncc(N(C)C)c2)cn1` [Example 72, N-cyclopropyl-3-{1-[5-(dimethyl-amino)pyridin-3-yl]-1H-imidazol-4-yl}-4-methylbenzamide]: 3.9 nM. As for `CC(=O)N1CCC(Oc2cncc(-n3cc(-c4cc(C(=O)NC5CC5)ccc4C)cn3)c2)CC1` [Example 149, 3-(1-{5-[(1-acelylpiperidin-4-yl)oxy]pyridin-3-yl}-1H-pyrazol-4-yl)-N-cyclopropyl-4-methyl-benzamide], the figure is 8.9 nM; as for `CC(=O)N1CC[C@H](Oc2cncc(-n3cc(-c4cc(C(=O)NC5CC5)ccc4C)cn3)c2)C1` [Example 129, 3-[1-(5-{[(3S)-1-acetylpyrrolidin-3-yl]oxy}pyridin-3-yl)-1H-pyrazol-4-yl]-N-cyclopropyl-4-methyl-benzamide], 44 nM; as for `Cc1cc(F)c(C(=O)NC2CC2)cc1-c1cnn(-c2cncc(NC3CCN(CCF)CC3)c2)c1` [Example 174, N-Cyclopropyl-2-fluoro-5-(1-{5-[1-(2-fluoro-ethyl)-piperidin-4-ylamino]-pyridin-3-yl}-1H-pyrazol-4-yl)-4-methyl-benzamide], 1.5 nM. Next, `Cc1cc(F)c(C(=O)NC2CC2)cc1-c1cnn(-c2cncc(NC3CC4CCC(C3)N4C3COC3)c2)c1` (stereo not drawn) [Example 75, N-cyclopropyl-2-fluoro-4-methyl-5-[1-(5-{[8-(oxetan-3-yl)-8-azabicyclo[3.2.1]octan-3-yl]amino}pyridin-3-yl)-1H-pyrazol-4-yl]benzamide]: 0.9 nM; `COC1CCC(Nc2cncc(-n3cc(-c4cc(C(=O)NC5CC5)ccc4C)cn3)c2)C1` (stereo not drawn) [Example 65, N-cyclopropyl-3-(1-{5-[(3-methoxycyclopentyl)amino]pyridin-3-yl}-1H-pyrazol-4-yl)-4-methyl-benzamide]: 2.3 nM; `Cc1ccc(C(=O)NC2CC2)cc1-c1cnn(-c2cncc(NC3CCN(C4CCOCC4C)CC3)c2)c1` (stereo not drawn) [Example 164, N-cyclopropyl-4-methyl-3-[1-(5-{[1-(3-methyloxan-4-yl)piperidin-4-yl]amino}pyridin-3-yl)-1H-pyrazol-4-yl]benzamide]: 2.1 nM. `Cc1ccc(C(=O)NC2CC2)cc1-c1cn(-c2cncc(C3CC3)c2)cn1` [Example 71, N-cyclopropyl-3-[1-(5-cyclopropyl-pyridin-3-yl)-1H-imidazol-4-yl]-4-methylbenzamide] came in with an IC50 of 2.7 nM.

Take `Cc1ccc(C(=O)NC2CC2)cc1-c1cnn(-c2cncc(CO)c2)c1` [Example 43, N-cyclopropyl-3-{1-[5-(hydroxymethyl)pyridin-3-yl]-1H-pyrazol-4-yl}-4-methylbenzamide]: the IC50 turned out to be 24 nM.

As for `Cc1ccc(C(=O)NC2CC2)cc1-c1cnn(-c2cncc(N(C)C)c2)c1` [Example 44, N-cyclopropyl-3-{1-[5-(dimethylamino)pyridin-3-yl]-1H-pyrazol-4-yl}-4-methylbenzamide], the IC50 stood at 6.4 nM.
